“And” between values parts separate entries of the source, which are not always exact repeats. Equal values may be shown once.
Columns and labels:
Format in all cases: physicochemical
[1] = Chemical stability in biorelevant media
Description: Samples of Form 1 (batch ref […]-0004-S-8002) and Form 3 (Example 5.4.1 (batch ref. 491PAL22; A-19-0132)) in 0.1 M HCl and FaSSIF media (1.2 mg/ml) were stored at ambient and 37° C. for up to 7 days. Chemical stability was assessed by determining the concentration of parent compound by HPLC on days 0, 3 and 7 in triplicate.

[2] = GVS sorption-desorption isotherms; conditions: for water content at starting conditions (GVS): 40% RH and 25° C.; for additional water taken up (GVS): RH increased to 90%; for crystalline form by XRPD after GVS: after sorption/desorption cycle(s); for total water content (GVS): at 90% RH; for water taken up (GVS): between 0% and 60% RH (Form 1: at 60% RH)
Description: Sorption isotherms were obtained using a SMS DVS Intrinsic moisture sorption analyser, controlled by DVS Intrinsic Control software. The sample temperature was maintained at 25° C. by the instrument controls. The humidity was controlled by mixing streams of dry and wet nitrogen, with a total flow rate of 200 ml/min. The relative humidity was measured by a calibrated Rotronic probe (dynamic range of 1.0-100% RH), located near the sample. The weight change, (mass relaxation) of the sample as a function of % RH was constantly monitored by a microbalance (accuracy±0.005 mg). Typically, 5-30 mg of sample was placed in a tared mesh stainless steel basket under ambient conditions. The sample was loaded and unloaded at 40% RH and 25° C. (typical room conditions). A moisture sorption isotherm was performed as outlined below (2 scans per complete cycle). The standard isotherm was performed at 25° C. at 10% RH intervals over a 0-90% RH range. Typically, a double cycle (4 scans) was carried out. Data analysis was carried out within Microsoft Excel using the DVS Analysis Suite. Samples of Example 1 (Form 1) and Example 3 (Form 3) were analysed for their sorption-desorption isotherms by GVS. […] The sample contained approximately 8% w/w water at the starting conditions of 40% RH and 25° C. […] Therefore, the second sorption profile seen in FIG. 18A is that of Form 3. […] The sample contained approximately 3-4% w/w water at the starting conditions of 40% RH and 25° C. […] A significant uptake of moisture occurred in the first sorption cycle between 60 and 70% RH equivalent to approximately 5% w/w.

[3] = Variable humidity XRPD (VH-XRPD) at 25° C.
Text: Non-ambient conditions: XRPD diffractograms were collected on a PANalytical Empyrean diffractometer using Cu Kα radiation (45 kV, 40 mA) in reflection geometry. The instrument is fitted with an Anton Paar CHC plus^+ stage fitted with graphite/Kapton windows and equipped with air cooling coupled with a proUmid MHG32 Modular Humidity Generator or a low vacuum pump system using an Edwards RV3 pump. A programmable divergence slit (in automatic mode), with a 10 mm fixed incident beam mask, Ni filter and 0.04 rad Soller slits were used on the incident beam. A PIXcel^3D detector, placed on the diffracted beam, was fitted with a programmable anti-scatter slit (in automatic mode) and 0.04 rad Soller slits. The software used for data collection was X'Pert Data Collector and the data analysed and presented using Diffrac Plus EVA or Highscore Plus. For variable humidity (VH-XRPD) experiments the samples were prepared and analysed in an Anton Paar chromed low-profile sample holder with silicon wafer insert. The measurement parameters are as per the standard screening data collection method (detailed above). For all variable humidity XRPD experiments, a pattern was recorded every hour. […] The Form 1 sample was loaded into the VH chamber, which was set to 40% RH and 25° C. and then the RH was decreased in 10% decrements to 10% RH followed by increasing the RH in 10% increments to 90% RH, while maintaining the temperature at 25° C. […] The sample then quickly transitioned from Form 1 at 80% RH to Form 2 at 90% RH. A variable humidity (VH) XRPD experiment was performed to examine how Form 3 exists under different RH conditions. […] The sample was stable as Form 2 for 8 hours at 80% RH. At 90% RH Form 2 existed for 2 hours before the sample deliquesced in the humidity chamber.

[4] = Compaction testing (Heckel analysis); conditions: for True Density: Helium Pycnometry; for Loss on Drying - end: end of compression testing; for Loss on Drying - end / Loss on Drying - start: 105° C.; for Yield pressure slow: punch speed 0.1 mm/s; for Yield pressure fast: punch speed 300 mm/s; for Loss on Drying - start: start of compression testing
Text: Samples of Form 1 and Form 3 were subjected to Heckel analysis to determine the yield pressure of the material upon compression under controlled conditions. A known weight of material was compressed within a 10 mm diameter die with flat faced punches moving at a set speed. The die was lubricated with magnesium stearate in acetone. The force on the punch was accurately measured at frequent intervals whilst the displacement of the punches was used to calculate the volume of the powder. The yield pressure was calculated at slow (0.1 mm/s) and fast (300 mm/s) punch speeds to assess the time dependant component to deformation of the material. The true density of the material was determined by Helium Pycnometry (Micromeritics AccuPyc II 1340) using a purge pressure and run fill pressure of 19.5 psig and an equilibration rate of 0.02 psig. Testing was performed in duplicate. Temperature and humidity were monitored at intervals during the testing.
The data were analysed by the Compaction Analysis software programme to generate values for yield pressure (Py) using the Heckel equation: ln(1/1−D)=kP+A where D=the relative density of the compact; P=Pressure applied; and K=Gradient of the line in the linear region [Heckel, Trans. Metall. Soc. AIME 221 (1961)1001-1008].
Strain Rate Sensitivity (SRS) can be calculated to determine whether the deformation characteristics of the material change with the rate of applied force. The yield pressure at high speed compression is compared to that at slow speed using the following equation [Roberts and Roe, Chem. Eng. Sci. 42(1987) p. 903]. % SRS=100×[(Py Fast−Py Slow)/Py Slow]
Loss on drying was carried out on the samples at the start and at the end of compression testing to monitor for moisture absorption during testing. A sample size of 2.0 g±0.2 g was spread onto an aluminium tray and dried until stable at 105° C. using a Mettler HB43-S Halogen moisture balance.

[5] = 0.1M HCl, ambient, Day 0, 1.2 mg/ml nominal, Form 3 = Example 5.4.1

Compound	Mean Conc of parent ([1]; 0.1M HCl, 37° C., Day 0) [µg/mL]	Mean Conc of parent ([1]; 0.1M HCl, 37° C., Day 3) [µg/mL]	Mean Conc of parent ([1]; 0.1M HCl, 37° C., Day 7) [µg/mL]	Mean Conc of parent [1, 5] [µg/mL]	Mean Conc of parent ([1]; 0.1M HCl, ambient, Day 3) [µg/mL]	Mean Conc of parent ([1]; 0.1M HCl, ambient, Day 7) [µg/mL]	Mean Conc of parent ([1]; FaSSIF, 37° C., Day 0) [µg/mL]	Mean Conc of parent ([1]; FaSSIF, 37° C., Day 3) [µg/mL]	Mean Conc of parent ([1]; FaSSIF, 37° C., Day 7) [µg/mL]	Mean Conc of parent ([1]; FaSSIF, ambient, Day 0) [µg/mL]	Mean Conc of parent ([1]; FaSSIF, ambient, Day 3) [µg/mL]	Mean Conc of parent ([1]; FaSSIF, ambient, Day 7) [µg/mL]	water content at starting conditions (GVS) [2]	additional water taken up (GVS) ([2]; 25° C.)	crystalline form by XRPD after GVS [2]	total water content (GVS) ([2]; 25° C.) [% w/w]	water taken up (GVS) [2]	compaction classification [4]	sticking on punch or die wall [4]	True Density [4] [g/mL]	further results
C[S+]([O-])CCCCN=C=S.OCC1OC2OC3C(CO)OC(OC4C(CO)OC(OC5C(CO)OC(OC6C(CO)OC(OC7C(CO)OC(OC1C(O)C2O)C(O)C7O)C(O)C6O)C(O)C5O)C(O)C4O)C(O)C3O (stereo not drawn) [Form 1]	1180	1060	1050	1220	1090	1050	1180	920	940	1160	960	900	approximately 8 % w/w	4-5 % w/w	had converted to Form 3	12.9	8-9 % w/w	soft ductile	no evidence of sticking	1.4586	hysteresis (GVS) ([2]; 25° C.): Significant hysteresis existed between 70% and 30% RH; solid state form (VH-XRPD) ([3]; Form 1 sample, RH reduced from 40% to 30% RH, 25° C.): intermediate phase; solid state form (VH-XRPD) ([3]; Form 1 sample, RH reduced to 20% RH, 25° C.): Form 3; solid state form (VH-XRPD) ([3]; Form 1 sample, after drying to 10% RH, RH increased to 70% RH): intermediate phase; solid state form (VH-XRPD) ([3]; Form 1 sample, after drying to 10% RH, RH increased to 80% RH): Form 1; solid state form (VH-XRPD) ([3]; Form 1 sample, after drying to 10% RH, RH increased to 90% RH): Form 2; Loss on Drying - end [4]: 4.25% w/w; Yield pressure slow [4]: 76 MPa and 76.3 (±1.05) MPa; Yield pressure fast [4]: 89 MPa and 88.9 (±2.32) MPa; Loss on Drying - start [4]: 4.07% w/w
C[S+]([O-])CCCCN=C=S.OC[C@H]1O[C@@H]2O[C@H]3[C@H](O)[C@@H](O)[C@@H](O[C@H]4[C@H](O)[C@@H](O)[C@@H](O[C@H]5[C@H](O)[C@@H](O)[C@@H](O[C@H]6[C@H](O)[C@@H](O)[C@@H](O[C@H]7[C@H](O)[C@@H](O)[C@@H](O[C@H]1[C@H](O)[C@H]2O)O[C@@H]7CO)O[C@@H]6CO)O[C@@H]5CO)O[C@@H]4CO)O[C@@H]3CO [Form 3]	1050	940	920	1080	940	1010	1010	800	780	1000	810	930	3-4 % w/w	7-8 % w/w	remains as Form 3	11.1	about 4 % w/w	moderately hard brittle/ductile	no evidence of sticking	1.4562	uptake of moisture in the first sorption cycle (GVS) ([2]; between 60 and 70% RH): approximately 5 % w/w; RH at which the form starts to convert to a different form ([3]; 25° C., increasing RH): 70%; solid state form (VH-XRPD) ([3]; Form 3 sample, RH decreased to 70% RH, persisted to 40% RH): Form 2 converted to Form 1; solid state form (VH-XRPD) ([3]; Form 3 sample, RH raised from 40% up to 60%, 25° C.): Form 3 is maintained; solid state form (VH-XRPD) ([3]; Form 3 sample, RH raised to 70%): intermediate phase; solid state form (VH-XRPD) ([3]; Form 3 sample, RH raised to 80%): Form 2; solid state form (VH-XRPD) ([3]; Form 3 sample, after dropping from 90% to 80% RH): Form 2 returned as a highly crystalline material; time sample was stable as Form 2 (VH-XRPD) ([3]; Form 3 sample, at 80% RH): 8 h; time Form 2 existed before the sample deliquesced (VH-XRPD) ([3]; Form 3 sample, at 90% RH): 2 h; Loss on Drying - end [4]: 1.13% w/w; Yield pressure slow [4]: 109 MPa and 108.7 (±2.90) MPa; Yield pressure fast [4]: 140 MPa and 140.4 (±3.65) MPa; Loss on Drying - start [4]: 1.99% w/w
